Where two headings read alike, the source gives them in different places.
Experiments:
[1] = test system: duplex-form calf thymus DNA (CT-DNA); experiment: Thermal denaturation studies with calf thymus DNA (DNA binding affinity); details: [PBD]:[DNA] 1:5, CT-DNA 100 μM, ligand 20 μM, pH 7.00
Method: Compounds have been subjected to thermal denaturation studies with duplex-form calf thymus DNA (CT-DNA) using an modification of a reported procedure (Newman, M. S. Carcinog-compr. Surv. 1976,1, 203; (b) Hecht, S. S.; Loy, M.; Hoffman, Carcinog-compr. Surv. 1976, 1, 325). Working solutions in aqueous buffer (10 mM NaH2PO4/Na2HPO4, 1 mM Na2EDTA, pH 7.00+0.01) containing CT-DNA (100 μm in phosphate) and the PBD (20 μm) have been prepared by addition of concentrated PBD solutions in DMSO to obtain a fixed [PBD]/[DNA] molar ratio of 1:5. The DNA-PBD solutions have been incubated at 37° C. for 0 and 18 h prior to analysis. Samples have been monitored at 260 using a Beckman DU-800 spectrophotometer fitted with high performance temperature controller, and heated at 1° C. min^−1 in the 40-110° C. range. DNA helix→coil transition temperatures (Tm) have been obtained from the maxima in the d(A260)/dT derivative plots. Drug-induced alterations in DNA melting behavior are given by: ΔTm=Tm(DNA+PBD)−Tm(DNA alone), where the Tm value for the PBD-free CT-DNA is 69.1±0.01.
The DNA binding activity for these novel C8-linked benzothiazole, benzoxazole-PBD hybrids has been examined by thermal denaturation studies using calf thymus (CT) DNA. […] The data for the compounds 9a-n is included in Table 7 for comparison.

[2] = test system: A 2780 (ovary cancer) cell line; experiment: cells; format: cell-based; details: 48 h drug exposure, SRB
Method: (§1) Anticancer activity: In vitro biological activity studies were carried out at the Advance Center for Treatment Research & Education in Cancer (ACTREC), Navi Mumbai.
(§2) The compounds were evaluated for in vitro anticancer activity against eight tumour cells lines derived from seven cancer types (non-small-cell lung, colon, oral, cervix, ovarian, prostate, and breast cancer) as shown in Table 2. For each compound, dose response curves for each cell line were measured at a minimum of five concentrations at 10 fold dilutions. A protocol of 48 h continuous drug exposure was used and a sulforhodamine B (SRB) protein assay was used to estimate cell viability or growth. The concentration causing 50% cell growth inhibition (GI50) and 50% cell death (LC50, −50% growth) compared with the control was calculated. Compounds 9a-9l have been evaluated for their in vitro cytotoxicity in eight cell lines from seven human cancer types of lung (Hop-62, A-549) colon (COLO-205) cervix (Si—Ha), ovary (A-2780), prostate (PC3) breast (MCF7), oral (KB). The results are expressed as percent of cell growth determined relative to that of untreated control cells (Table-8 and table-9).

[3] = test system: A 549 (lung cancer) cell line; experiment: cells; format: cell-based
Method: as §1, §2

[4] = test system: Colo 205 (colon cancer) cell line; experiment: cells; format: cell-based
Method: as §1, §2

[5] = test system: HOP 62 (lung cancer) cell line; experiment: cells; format: cell-based
Method: as §1, §2

[6] = test system: MCF 7 (breast cancer) cell line; experiment: cells; format: cell-based; details: 48 h drug exposure, SRB
Method: as §1, §2

[7] = test system: PC 3 (prostate cancer) cell line; experiment: cells; format: cell-based; details: 48 h drug exposure, SRB
Method: as §1, §2

[8] = test system: SiHa (cervix cancer) cell line; experiment: cells; format: cell-based; details: 48 h drug exposure, SRB
Method: as §1, §2

[9] = test system: KB (oral cancer) cell line; experiment: In vitro anticancer activity, SRB assay, KB; format: cell-based, human; details: 48 h drug exposure, SRB; for GI50: mean of three determinations, read-out: GI50 KB
Method: as §1, §2

[10] = test system: eight tumour cells lines derived from seven cancer types; experiment: In vitro anticancer activity, SRB assay, panel of eight cell lines; format: cell-based; details: Homo sapiens, range over the eight cell lines per compound; read-out: GI50 range against cancer cell lines
Method: as §1, §2

[11] = test system: duplex-form calf thymus DNA (CT-DNA); details: comparative data, hybrids without piperazine, cited from earlier work
[12] = test system: MCF 7 (breast cancer) cell line; details: comparative data, hybrids without piperazine; read-out: GI50 MCF 7 (hybrides with out piperazine); cited from earlier work
[13] = test system: Colo 205 (colon cancer) cell line; details: comparative data, hybrids without piperazine; read-out: GI50 Colo 205 (hybrides with out piperazine); cited from earlier work
[14] = test system: PC 3 (prostate cancer) cell line; details: comparative data, hybrids without piperazine; read-out: GI50 PC 3 (hybrides with out piperazine); cited from earlier work
[15] = test system: A 549 (lung cancer) cell line; details: comparative data, hybrids without piperazine; read-out: GI50 A 549 (hybrides with out piperazine); cited from earlier work
[16] = test system: HOP 62 (lung cancer) cell line; details: comparative data, hybrids without piperazine; read-out: GI50 HOP 62 (hybrides with out piperazine); cited from earlier work
[17] = test system: IGROV1 (ovary cancer) cell line; details: comparative data, hybrids without piperazine; read-out: GI50 IGROV1 (hybrides with out piperazine); cited from earlier work
[18] = test system: SNB-19 cell line; details: comparative data, hybrids without piperazine; read-out: GI50 SNB-19 (hybrides with out piperazine); cited from earlier work
[19] = test system: A498 cell line; details: comparative data, hybrids without piperazine; read-out: GI50 A498 (hybrides with out piperazine); cited from earlier work

SMILES	ΔTm after incubation at 37° C. for 0 h (PBD hybrids with out piperizine) [11]	ΔTm after incubation at 37° C. for 18 h (PBD hybrids with out piperizine) [11]	GI50 [12]	GI50 [13]	GI50 [14]	GI50 [15]	GI50 [16]	GI50 [17]	GI50 [18]	GI50 [19]	other results
COc1cc2c(cc1OCCCCN1CCN(CCCCOc3ccc(-c4nc5ccccc5s4)cc3)CC1)N=C[C@@H]1CCCN1C2=O [Compound 9l, 7-Methoxy-8-[4-(4-{4-[4(1,3-benzothiazol-2-yl)-phenoxy]butyl}piperazin-1-yl)butyl]oxy-(11aS)-1,2,3,11a-tetrahydro-5H-pyrrolo[2,1-c][1,4]benzodiazepin-5-one]	–	–	–	–	–	–	–	–	–	–	ΔTm after incubation at 37° C. for 0 h ([1]; 0 h): 11.5 °C; ΔTm after incubation at 37° C. for 18 h ([1]; 18 h): 11.8 °C; CC50 ([2]; Homo sapiens, A2780, 48 h, read-out: LC50 A 2780, 50% cell death): 2100 nM; GI50 ([2]; read-out: GI50 A 2780, mean of three determinations): 99 nM; CC50 ([3]; human, 48 h): 30000 nM; GI50 ([3]; read-out: GI50 A 549, 48 h drug exposure, SRB, mean of three determinations): < 10 nM; CC50 ([4]; Homo sapiens, COLO 205, 48 h, read-out: LC50 Colo 205): > 100000 nM; GI50 ([4]; read-out: GI50 Colo 205, 48 h drug exposure, SRB, mean of three determinations): < 10 nM; CC50 ([5]; human, 48 h): 2500 nM; GI50 ([5]; read-out: GI50 HOP 62, 48 h drug exposure, SRB, mean of three determinations): 110 nM; LC50 (concentration causing 50% cell death) ([6]; Homo sapiens, MCF7, 48 h, read-out: LC50 MCF 7, 50% cell death): 160 nM; GI50 ([6]; read-out: GI50 MCF 7, mean of three determinations): < 10 nM; CC50 ([7]; Homo sapiens, 48 h, read-out: LC50 Pc 3, 50% cell death): 2100 nM; GI50 ([7]; read-out: GI50 PC 3, mean of three determinations): < 10 nM; LC50 (concentration causing 50% cell death) ([8]; Homo sapiens, SiHa, 48 h, read-out: LC50 SiHa, 50% cell death): 28000 nM; GI50 ([8]; read-out: GI50 SiHa, mean of three determinations): 125 nM; GI50 ([9]; listed as 91): 110 nM; GI50 [9]: 110 nM; CC50 ([9]; Homo sapiens, 48 h, read-out: LC50 KB, 50% cell death): 2000 nM; GI50 [10]: ≤ 125 nM
COc1cc2c(cc1OCCCCOc1ccc(-c3nc4ccccc4s3)cc1)N=C[C@@H]1CCCN1C2=O [Compound 20a]	0.5 °C	0.5 °C	320 nM	340 nM	290 nM	2630 nM	406 nM	2420 nM	1520 nM	2020 nM	–
COc1cc(-c2nc3ccccc3s2)ccc1OCCCCOc1cc2c(cc1OC)C(=O)N1CCC[C@H]1C=N2 [Compound 20b]	0.5 °C	0.5 °C	400 nM	690 nM	410 nM	2660 nM	1410 nM	3060 nM	1610 nM	1600 nM	–
COc1cc2c(cc1OCCCCCOc1ccc(-c3nc4ccccc4s3)cc1)N=C[C@@H]1CCCN1C2=O [Compound 20c]	4.1 °C	4.3 °C	330 nM	380 nM	230 nM	2590 nM	412 nM	2690 nM	2940 nM	2260 nM	–
COc1cc(-c2nc3ccccc3s2)ccc1OCCCCCOc1cc2c(cc1OC)C(=O)N1CCC[C@H]1C=N2 [Compound 20d]	6.2 °C	6.3 °C	10 nM	60 nM	40 nM	240 nM	40 nM	344 nM	210 nM	170 nM	–

From patent US8637665B2, “Pyrrolo[2,L-C][L,4]benzodiazepine-benzothiazole or benzoxazole conjugates linked through piperazine moiety and process for the preparation thereof” (priority 2010, dated 2014)
